Test results: ChEMBL document CHEMBL4219149, “Design and synthesis of triple inhibitors of janus kinase (JAK), histone deacetylase (HDAC) and Heat Shock Protein 90 (HSP90)” (Bioorg Med Chem Lett, 2018)

Columns and labels:
Heat shock protein HSP90 = Heat shock protein HSP90 (Homo sapiens, UniProt P07900+P08238); assay: Inhibition of geldanamycin-based probe binding to HSP90 (unknown origin) by fluorescence polarization assay; assay type: protein assay
[1] = target: Tyrosine-protein kinase JAK2 (Homo sapiens, UniProt O60674); assay: Inhibition of human JAK2 using poly[Glu:Tyr] (4:1) as substrate in presence of [gamma33P]-ATP
[2] = target: Heat shock protein HSP 90-alpha (Homo sapiens, UniProt P07900); assay: Inhibition of HSP90alpha (unknown origin)
Histone deacetylase 1 = Histone deacetylase 1 (Homo sapiens, UniProt Q13547); assay: Inhibition of HDAC1 (unknown origin) using Arg-His-Lys-Lys(Ac) as substrate after 2 hrs by fluorescence analysis
[3] = target: T1, Protein deacetylase HDAC6 (Homo sapiens, UniProt Q9UBN7); assay: Inhibition of HDAC6 (unknown origin) using Arg-His-Lys-Lys(Ac) as substrate after 2 hrs by fluorescence analysis
T1 sequence (Q9UBN7 whole entry): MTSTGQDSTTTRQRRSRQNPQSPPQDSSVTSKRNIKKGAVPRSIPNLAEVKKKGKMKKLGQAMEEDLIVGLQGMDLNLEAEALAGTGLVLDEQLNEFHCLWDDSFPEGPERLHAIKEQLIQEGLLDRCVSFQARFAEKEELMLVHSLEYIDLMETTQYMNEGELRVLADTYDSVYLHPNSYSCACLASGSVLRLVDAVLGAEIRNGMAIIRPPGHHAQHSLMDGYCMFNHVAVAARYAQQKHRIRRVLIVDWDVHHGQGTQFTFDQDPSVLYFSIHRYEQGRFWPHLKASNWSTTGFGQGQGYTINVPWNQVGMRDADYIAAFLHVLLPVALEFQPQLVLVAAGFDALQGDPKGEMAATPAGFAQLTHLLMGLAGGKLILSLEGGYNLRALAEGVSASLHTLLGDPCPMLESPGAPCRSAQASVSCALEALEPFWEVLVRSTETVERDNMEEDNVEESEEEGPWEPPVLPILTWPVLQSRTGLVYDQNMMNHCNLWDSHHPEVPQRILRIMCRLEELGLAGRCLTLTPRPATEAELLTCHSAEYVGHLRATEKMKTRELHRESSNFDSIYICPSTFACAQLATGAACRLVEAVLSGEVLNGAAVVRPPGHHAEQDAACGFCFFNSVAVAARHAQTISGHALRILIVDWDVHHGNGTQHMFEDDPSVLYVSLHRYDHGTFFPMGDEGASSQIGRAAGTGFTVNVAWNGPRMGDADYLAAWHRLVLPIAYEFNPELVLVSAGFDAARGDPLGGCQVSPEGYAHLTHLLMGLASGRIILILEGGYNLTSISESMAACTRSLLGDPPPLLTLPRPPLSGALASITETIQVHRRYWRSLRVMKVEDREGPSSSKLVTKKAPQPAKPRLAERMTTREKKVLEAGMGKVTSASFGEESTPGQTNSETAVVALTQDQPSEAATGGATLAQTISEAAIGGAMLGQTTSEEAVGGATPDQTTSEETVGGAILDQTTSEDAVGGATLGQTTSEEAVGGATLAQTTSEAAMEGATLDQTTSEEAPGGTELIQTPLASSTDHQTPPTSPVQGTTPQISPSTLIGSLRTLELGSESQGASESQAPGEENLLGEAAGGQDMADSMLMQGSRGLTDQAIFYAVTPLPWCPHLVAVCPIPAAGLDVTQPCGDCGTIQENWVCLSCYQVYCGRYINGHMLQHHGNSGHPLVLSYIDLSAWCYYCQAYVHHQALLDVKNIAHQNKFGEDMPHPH

Histone deacetylase 1, sequence (Q13547 whole entry): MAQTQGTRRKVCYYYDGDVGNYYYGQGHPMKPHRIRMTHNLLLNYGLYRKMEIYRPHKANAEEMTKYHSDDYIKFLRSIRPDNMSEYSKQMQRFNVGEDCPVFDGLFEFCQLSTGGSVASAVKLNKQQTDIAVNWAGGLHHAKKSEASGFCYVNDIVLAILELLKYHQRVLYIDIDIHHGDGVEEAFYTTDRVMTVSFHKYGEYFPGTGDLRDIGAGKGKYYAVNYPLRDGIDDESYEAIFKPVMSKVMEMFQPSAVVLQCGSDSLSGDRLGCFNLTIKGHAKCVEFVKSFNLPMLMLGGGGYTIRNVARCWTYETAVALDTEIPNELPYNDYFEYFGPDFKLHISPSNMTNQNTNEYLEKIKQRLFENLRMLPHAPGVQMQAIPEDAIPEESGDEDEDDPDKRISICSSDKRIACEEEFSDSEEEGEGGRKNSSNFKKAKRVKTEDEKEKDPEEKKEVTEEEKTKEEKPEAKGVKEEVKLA
Tyrosine-protein kinase JAK2, sequence (O60674 whole entry): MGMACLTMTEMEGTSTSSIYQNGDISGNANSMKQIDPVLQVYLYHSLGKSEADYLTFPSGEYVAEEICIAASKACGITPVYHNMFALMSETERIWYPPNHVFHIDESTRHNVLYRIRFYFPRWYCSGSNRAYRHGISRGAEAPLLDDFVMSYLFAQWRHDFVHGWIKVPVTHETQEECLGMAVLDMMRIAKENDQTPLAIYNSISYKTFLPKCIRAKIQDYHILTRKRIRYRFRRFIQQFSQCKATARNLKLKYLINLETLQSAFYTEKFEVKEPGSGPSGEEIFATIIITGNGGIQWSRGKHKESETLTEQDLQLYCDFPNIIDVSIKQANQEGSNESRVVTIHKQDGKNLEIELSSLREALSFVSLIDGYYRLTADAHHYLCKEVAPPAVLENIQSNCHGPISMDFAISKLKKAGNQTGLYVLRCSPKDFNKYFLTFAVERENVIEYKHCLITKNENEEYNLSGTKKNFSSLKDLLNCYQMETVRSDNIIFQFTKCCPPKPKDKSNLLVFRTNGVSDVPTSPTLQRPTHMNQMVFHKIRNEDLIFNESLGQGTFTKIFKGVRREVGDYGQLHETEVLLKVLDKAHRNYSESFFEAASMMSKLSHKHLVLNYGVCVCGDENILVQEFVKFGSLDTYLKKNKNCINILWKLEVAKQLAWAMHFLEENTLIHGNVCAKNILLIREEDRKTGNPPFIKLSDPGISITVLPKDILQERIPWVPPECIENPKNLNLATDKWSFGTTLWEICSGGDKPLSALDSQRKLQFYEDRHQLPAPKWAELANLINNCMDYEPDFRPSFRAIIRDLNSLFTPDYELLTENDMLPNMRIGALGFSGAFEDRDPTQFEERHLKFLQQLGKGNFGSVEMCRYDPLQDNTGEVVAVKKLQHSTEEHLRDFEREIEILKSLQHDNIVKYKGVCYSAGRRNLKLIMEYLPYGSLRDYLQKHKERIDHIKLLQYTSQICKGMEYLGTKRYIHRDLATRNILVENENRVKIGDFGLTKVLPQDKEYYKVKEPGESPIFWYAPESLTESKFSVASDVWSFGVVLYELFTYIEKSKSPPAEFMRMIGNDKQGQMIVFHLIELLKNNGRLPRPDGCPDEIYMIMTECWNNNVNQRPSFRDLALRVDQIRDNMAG

| IC50 (Heat shock protein HSP90) [µM] | IC50 [1] [µM] | IC50 [2] [µM] | IC50 (Histone deacetylase 1) [µM] | IC50 [3] [µM] | SMILES |
| --- | --- | --- | --- | --- | --- |
| > 10 | – | – | – | – | CCNC(=O)c1cc2c(-c3cccc(OCCCCCCn4cc(-c5ncnc6[nH]ccc56)cn4)c3)nc(N)nc2s1 |
| 0.4 | 3.45 | – | – | – | CCNC(=O)c1cc2c(-c3cc(OCCCCCn4cc(-c5ncnc6[nH]ccc56)cn4)c(Cl)cc3Cl)nc(N)nc2s1 |
| > 10 | – | – | – | – | CCNC(=O)c1cc2c(-c3cccc(OCCCCCn4cc(-c5ncnc6[nH]ccc56)cn4)c3)nc(N)nc2s1 |
| 0.11 | 1.71 | – | – | – | CCNC(=O)c1cc2c(-c3cc(OCCCCCCn4cc(-c5ncnc6[nH]ccc56)cn4)c(Cl)cc3Cl)nc(N)nc2s1 |

The remaining lines, values behind:

| SMILES | IC50 (Heat shock protein HSP90) [µM] | IC50 [1] [µM] | IC50 [2] [µM] | IC50 (Histone deacetylase 1) [µM] | IC50 [3] [µM] |
| --- | --- | --- | --- | --- | --- |
| CCNC(=O)c1cc2c(-c3cccc(OCCCCn4cc(-c5ncnc6[nH]ccc56)cn4)c3)nc(N)nc2s1 | > 10 | > 10 | – | – | – |
| CCNC(=O)c1cc2c(-c3cccc(OCCCCCCOc4ccc(Nc5nc(-c6cnn(CCCCCCC(=O)NO)c6)c6cc[nH]c6n5)cc4)c3)nc(N)nc2s1 | – | > 100 | > 100 | 2.47 | 0.008 |
| CCNC(=O)c1cc2c(-c3cc(OCCCCCCn4cc(-c5nc(Nc6ccc(NC(=O)CCCCCCC(=O)NO)cc6)nc6[nH]ccc56)cn4)c(Cl)cc3Cl)nc(N)nc2s1 | – | 14.1 | > 100 | > 100 | 2.82 |
| CCNC(=O)c1cc2c(-c3cc(OCCCCCCn4cc(-c5nc(Nc6ccc(NC(=O)CCCCCCC(=O)O)cc6)nc6[nH]ccc56)cn4)c(Cl)cc3Cl)nc(N)nc2s1 | – | – | 20.2 | > 100 | 6.3 |
